Read-outs that look alike come from different tables or passages of the source. Positions of bridges follow the written chain, without caps; N, C: chain ends. Residues, ends and D or L forms follow the SMILES beside them.
Test system: Pseudomonas aeruginosa type 1
Assay type: cell-based
Settings: pH 5.6
Description: Bactericidal activity can be evaluated against a variety of bacteria such as Pseudomonas spp including aeruginosa and P. cepacia, E. coli B, and Staphylococcus aureus. The preferred organism is P. aeruginosa. Bactericidal activity is determined by identifying the effective dose for killing as the molar concentration of the peptide which results in at least a 60% killing of the bacteria, as determined by standard methods. Preferably, the peptide has an effective dose at a concentration of about 1×10^-4 M to about 1×10^-10 M, and more preferably 1×10^-7 M to 1×10^-9M . […] The effective dose for bactericidal activity of B/PI is seen at about […] . Bactericidal activity can also be determined by calculating a lethal dose 50 (LD50) using standard methods. The LD50 is that amount of peptide or protein that kills 50% of the bacteria when measured using standard dose response methods. A bactericidal peptide preferably has an LD50 of about 10^-4 M to about 10^-9 M , more preferably about 10^-7 to 10^-9 M .
The synthetically produced peptides were assayed for bactericidal activity against Pseudomonas aeruginosa, type 1, P. cepacia ATCC 25608, E. coli B, and Staphylococcus aureus 502A by standard methods.
Pseudomonas aeruginosa type 1 is a clinical isolate maintained in the laboratory since 1972. The isolate remains a smooth strain and was serotyped by the scheme of Homma. Homma, Jpn. J. Exp. Med., 46:329 (1976). A rough strain E. coli B and S. aureus 502A were obtained from Paul Quie, University of Minnesota. The characteristics of the S. aureus strain have been described in Shinefield et al., Amer. J. Dis. Chil., 105:646 (1963). Pseudomonas cepacia ATCC 25608 was purchased from the American Type Culture Collection in 1980. S. aureus and E. coli were maintained on nutrient agar plates and the Pseudomonas strains were maintained on blood agar plates.
Pyrogen-free solutions were used throughout this assay and all methods which follow. Log phase bacteria were prepared from a culture in brain heart infusion broth as previously described except that bacteria were washed and resuspended in saline with adjustment to an optical density at 650 nm which would yield 3×10^8 CFU/ml. Bacteria were then diluted 1:10 in 0.08M citrate phosphate buffer, pH 5.6 or pH 7.0, for use in the assay. S. aureus rapidly lost viability in the pH 5.6 buffer and was studied only at pH 7.0. Bactericidal activity was determined by dose response and where an LD50 is indicated, it was determined by linear regression.

CC[C@H](C)[C@@H]1NC(=O)[C@H](CCCCN)NC(=O)[C@@H](N)CSSC[C@@H](C(=O)O)NC(=O)[C@H](Cc2ccccc2)NC(=O)[C@H](CC(N)=O)NC(=O)CNC(=O)[C@H](CO)NC(=O)[C@H](CCSC)NC(=O)[C@H](CCCCN)NC(=O)[C@H](CC(C)C)NC(=O)[C@H](Cc2ccccc2)NC(=O)[C@H](CCCNC(=N)N)NC(=O)[C@H](CCCCN)NC(=O)[C@H](CCC(N)=O)NC(=O)[C@H](C)NC(=O)[C@H](CCCCN)NC(=O)[C@H](Cc2c[nH]c3ccccc23)NC(=O)[C@H](CCCCN)NC(=O)CNC(=O)[C@H](CO)NC1=O [cyclic 36] (H-CKISGKWKAQKRFLKMSGNFC-OH; disulfide 1-21)
% Killing of 5 × 10^6 Bacteria (type 1, 1.5e-7 M): 76%

CC[C@H](C)[C@H](NC(=O)[C@@H](N)CCCCN)C(=O)N[C@@H](CO)C(=O)NCC(=O)N[C@@H](CCCCN)C(=O)N[C@@H](Cc1c[nH]c2ccccc12)C(=O)N[C@@H](CCCCN)C(=O)N[C@@H](C)C(=O)N[C@@H](CCC(N)=O)C(=O)N[C@@H](CCCCN)C(=O)N[C@@H](CCCNC(=N)N)C(=O)N[C@@H](Cc1ccccc1)C(=O)N[C@@H](CC(C)C)C(=O)N[C@@H](CCCCN)C(=O)O [Peptide 8a, kisgkwkaqkrflk]
% Killing of 5 × 10^6 Bacteria (type 1, 6.0e-6 M): 79%

CSCC[C@H](NC(=O)[C@H](CCCCN)NC(=O)[C@H](CC(C)C)NC(=O)[C@H](Cc1ccccc1)NC(=O)[C@H](CCCNC(=N)N)NC(=O)[C@H](CCCCN)NC(=O)[C@H](CCC(N)=O)NC(=O)[C@H](C)NC(=O)[C@H](CCCCN)NC(=O)[C@H](Cc1c[nH]c2ccccc12)NC(=O)[C@@H](N)CCCCN)C(=O)N[C@@H](CO)C(=O)NCC(=O)O [Peptide 9a, kwkaqkrflkmsg]
% Killing of 5 × 10^6 Bacteria (type 1, 6.0e-6 M): 67%

CC[C@H](C)[C@H](NC(=O)[C@H](CCCCN)NC(=O)[C@@H](N)CS)C(=O)N[C@@H](CO)C(=O)NCC(=O)N[C@@H](CCCCN)C(=O)N[C@@H](Cc1c[nH]c2ccccc12)C(=O)N[C@@H](CCCCN)C(=O)N[C@@H](C)C(=O)N[C@@H](CCC(N)=O)C(=O)N[C@@H](CCCCN)C(=O)N[C@@H](CCCNC(=N)N)C(=O)N[C@@H](Cc1ccccc1)C(=O)N[C@@H](CC(C)C)C(=O)N[C@@H](CCCCN)C(=O)O [Peptide 8b, ckisgkwkaqkrflk]
% Killing of 5 × 10^6 Bacteria (type 1, 1.5e-6 M): 88%

CSCC[C@H](NC(=O)[C@H](CCCCN)NC(=O)[C@H](CC(C)C)NC(=O)[C@H](Cc1ccccc1)NC(=O)[C@H](CCCNC(=N)N)NC(=O)[C@H](CCCCN)NC(=O)[C@H](CCC(N)=O)NC(=O)[C@H](C)NC(=O)[C@H](CCCCN)NC(=O)[C@H](Cc1c[nH]c2ccccc12)NC(=O)[C@H](CCCCN)NC(=O)[C@@H](N)CS)C(=O)N[C@@H](CO)C(=O)NCC(=O)O [Peptide 9b, ckwkaqkrflkmsg]
% Killing of 5 × 10^6 Bacteria (type 1, 1.5e-6 M): 96%

CC[C@H](C)[C@H](NC(=O)[C@H](CCCCN)NC(=O)[C@@H](N)CSSC[C@H](N)C(=O)N[C@@H](CCCCN)C(=O)N[C@H](C(=O)N[C@@H](CO)C(=O)NCC(=O)N[C@@H](CCCCN)C(=O)N[C@@H](Cc1c[nH]c2ccccc12)C(=O)N[C@@H](CCCCN)C(=O)N[C@@H](C)C(=O)N[C@@H](CCC(N)=O)C(=O)N[C@@H](CCCCN)C(=O)N[C@@H](CCCNC(=N)N)C(=O)N[C@@H](Cc1ccccc1)C(=O)N[C@@H](CC(C)C)C(=O)N[C@@H](CCCCN)C(=O)O)[C@@H](C)CC)C(=O)N[C@@H](CO)C(=O)NCC(=O)N[C@@H](CCCCN)C(=O)N[C@@H](Cc1c[nH]c2ccccc12)C(=O)N[C@@H](CCCCN)C(=O)N[C@@H](C)C(=O)N[C@@H](CCC(N)=O)C(=O)N[C@@H](CCCCN)C(=O)N[C@@H](CCCNC(=N)N)C(=O)N[C@@H](Cc1ccccc1)C(=O)N[C@@H](CC(C)C)C(=O)N[C@@H](CCCCN)C(=O)O [dimer 8b]
% Killing of 5 × 10^6 Bacteria (type 1, 1.5e-6 M): 52%

CC(C)C[C@@H]1NC(=O)[C@H](Cc2ccccc2)NC(=O)[C@H](CCCCN)NC(=O)[C@@H](NC(=O)[C@H](CCCCN)NC(=O)[C@@H](NC(=O)[C@@H](N)CCCCN)[C@@H](C)O)CSSC[C@@H](C(=O)O)NC(=O)[C@H](CCCCN)NC(=O)[C@H](CCCCN)NC1=O [cyclic 25, reference compound] (H-KTKCKFLKKC-OH; disulfide 4-10)
% Killing of 5 × 10^6 Bacteria (type 1, 1.5e-5 M): 73%
